Data set [1] deals with airway smooth muscle (ASM) in tracheal rings from OVA sensitized/challenged mice. The data set is described as follows: Inhibition of acetylcholine-induced ASM contraction in tracheal rings (ex vivo myography, 30 min pretreatment). Set-up: species or system BALB/c mice. As to conditions: for ASM contraction to acetylcholine: isolated compound at 6.0 μg/ml, FIG. 6A/6B; for ASM contraction to acetylcholine / Ach-induced contraction (10-4 M Ach, percent of 60 mM KCL): 30 min pretreatment; for Ach-induced contraction (10-4 M Ach, percent of 60 mM KCL): 10 μg/ml (Matrine 40 μM, Sophocarpine 40 μM, Oxymatrine 37 μM); for Ach-induced contraction (10-4 M Ach, percent of 60 mM KCL) / relative potency among the matrine type alkaloids: FIGS. 12, 13; for relative potency among the matrine type alkaloids: 10 μg/ml. How it is done:
To determine which herbal constituents in ASHMI™ have a direct inhibitory effect on ASM contraction, an asthmatic mouse model was induced by ovalbumin (OVA) sensitization and challenge as described previously (Zhang et al., 2010). Tracheal rings from asthmatic mice were treated with an aq. extract of ASHMI™ (100 μg/ml), or individual herb aq. extracts, G. lucidum (35 μg/ml), S. flavescens (45 μg/ml) and G. uralenisis (20 μg/ml), for 30 min prior to ex vivo acetylcholine provocation. The ASHMI™ concentration was based on our previous publication (Zhang et al., 2010). Concentrations of individual herb extracts were equivalent to their individual concentrations in ASHMI™.
Balb/c mice were sensitized by intraperitoneal (i.p.) injection of 200 μg OVA plus 2 mg of aluminum hydroxide (alum) in 400 μl of PBS on days 0 and 7. Mice were challenged intratracheally (i.t.) with 100 μg of OVA in 50 μl of PBS weekly for 2 weeks (days 14 and 21). Mice were challenged i.t. once daily with 100 μg of OVA (50 μl) on 2 consecutive days (days 28 and 29) 48 hr before sacrifice and tissue harvesting.
Forty-eight hrs after the last i.t. OVA challenge, mice were sacrificed and tracheas were excised and cut into 3 tracheal rings as previously described. Each tracheal ring was attached to a pair of mounting pins in the organ chamber of a Myograph System Model 610M system (AD Instruments, Denver, Colo.) and bathed in a chamber containing physiological salt solution (PSS (In g/L—NaCl: 6.95, KCl: 0.35, MgSO4.7H2O: 0.28, KH2PO4: 0.1561, CaCl2.2H2O: 0.36, NaHCO3: 2.1, EDTA: 0.01, Glucose: 1.09, pH=7.4). All chambers were maintained at 37° C. and were continuously bubbled with 100% 02. The change of tracheal ring tension was recorded by Power Lab Chart recording software (AD Instruments). After incubation at 37° C. for 15 min at baseline tension, passive tension applied to the tracheal ring was adjusted to 1.00 mN. Following stabilization of passive tension, tracheal rings were contracted using 60 mM KCl twice, to assess ASM contractility. Tracheal rings were washed with PSS buffer 3 times and allowed to rest at 1.00 mN for 30 min after each stimulation. The individual compounds as indicated in FIG. 14 were dissolved in DMSO and then re-suspended in PBS (DMSO <0.1%). Each drug was added to the chamber at the concentrations indicated and the pre-incubation time was 30 min. Tracheal rings were then contracted with incremental doses of acetylcholine (from 10^-8 M to 10^-4 M). PBS (vehicle) treatment was used as control.

The next data set has as its system tracheal tissue (rings). The data set is described as follows: Tracheal ring viability: contractile response to KCl after washout. Further details: species or system mouse. As to conditions: 10 μg/ml. How it is done:
FIG. 12. Representative real time tracing of murine tracheal ring contractions. Rings were first stimulated with 60 mM KCL to assess contractile potential. Compounds (Matrine (40 μM), Oxymatrine (37 μM), sophocarpine (40 μM) or PSS (vehicle) were added 30 minutes prior to stimulation with 10^-4 M Ach. Ring viability was tested 90 minutes after Ach washout.
We first generated a methylene chloride (MC) extract from an aq. extract of S. flavescens to obtain a flavonoid rich extract (designated MC extract, FIG. 2). […] We next generated 5 sub-fractions (MC-F1, 2, 3, 4 and 5) using preparative HPLC and tested each at 6.0 μg/ml. […] The inhibition of ASM contraction by MC-F1 was concentration-dependent (FIG. 4B) and non-toxic as contractile responses to KCl were present after buffer washings (FIG. 4C).
Having observed that Fraction 3 of S. flavescens was a potent inhibitor of Ach-stimulated tracheal contraction we tested major compounds present in this fraction in myography experiments. According to investigations using mass spectrometric techniques, the major compounds identified in SF Fraction 3 were the matrine type alkaloids-Matrine, Oxymatrine and Sophocarpine.

The subject of data set [2] is acetylcholine pre-contracted sensitized murine tracheal rings (ASM). Briefly: Relaxation of acetylcholine pre-contracted tracheal rings. Further details: species or system mouse. As to conditions: for effect of co-incubation with β2-AR antagonist ICI 118,551 on relaxation: FIG. 7A/7B. As to the method: FIGS. 7A-7C. Relaxation effects of trifolirhizin or the β2-AR agonist fenoterol on acetylcholine pre-contracted ASM. (A). The relaxation effect of trifolirhizin on acetylcholine-stimulated tracheal rings with or without ICI 118,551 (ICI). (B). The relaxation effect of the β2-AR agonist fenoterol on acetylcholine-contracted tracheal rings with or without ICI 118,551; Relaxation is expressed as the percent of residual contractile tone remaining at 15 min after trifolirhizin or fenoterol addition. (C). Representative myography tracings of relaxation experiment using fenoterol (upper tracing), PBS control (middle tracing) or trifolirhizin- (lower tracing) treated sensitized mouse tracheal rings (***, p≤0.001 compared to PBS control). Note the magnitude of total relaxation achieved with trifolirhizin compared to the β2-AR agonist fenoterol.
The primary therapy for acute constriction of airway smooth muscle is β2-AR agonists which are inhaled for the acute relaxation of hyperresponsive airway smooth muscle. We performed studies with trifolirhizin to determine whether it could relax pre-contracted airway smooth muscle and how the magnitude of relaxation compared to a classic β2-AR agonist fenoterol. In order to investigate the relaxation effect of trifolirhizin on ASM, we tested this isolated compound on acetylcholine pre-contracted sensitized murine tracheal rings. […] The maximal relaxation was 85% of the initial contractile tone at a trifolirhzin concentration of 20 μg/ml (FIG. 7A). In parallel studies the β2-AR agonist fenoterol only achieved 25% relaxation even at the highest concentration tested (10^-5 M).

Data set [3] has as its system airway resistance in response to methacholine. The data set is described as follows: Airway resistance to nebulized methacholine, forced oscillation technique (Flexivent). Format: in vivo, male A/J mice. As to conditions: nebulized 25 ul of 60 ug/ml, 15 minutes before nebulized methacholine; N=3; FIG. 15. How it is done:
FIG. 15: Airway resistance in male A/J 20 g mice pretreated with nebulization of vehicle (25 ul 0.3% DMSO) or trifolirhizin (25 ul of 60 ug/ml) 15 minutes before nebulized methacholine as measured by the forced oscillation technique (Flexivent, Scireq). N=3.

Molecules are shown by their SMILES. “Also recorded” adds a separate entry of the source. Counter-ions that a name gives are not always drawn.

On to `COc1ccc(-c2coc3cc(O)ccc3c2=O)cc1O` [3′,7-dihydroxy-4′-methoxy-isoflavone], for which, in data set [1], the “ASM contraction to acetylcholine” value was “had no effect on ASM contraction”.
`C[C@@H]1C[C@H]2[C@@H]3CCC4=CC(=O)C=C[C@]4(C)[C@@]3(F)[C@@H](O)C[C@]2(C)[C@@]1(O)C(=O)CO` [Dexamethasone, dexamethasone, reference compound]: the “acetylcholine-induced ASM contractions” value in data set [1] (10 μM acute pretreatment, FIG. 6D) is listed as “did not inhibit”.
On to `O=C1CCC[C@@H]2[C@H]3CCCN4CCC[C@@H](CN12)[C@@H]34` [Matrine], for which the “toxicity to tracheal tissue (response to KCL 90 minutes after washout)” value in the data set on tracheal tissue (rings) is given as “did not exhibit toxicity to tracheal tissue”. In addition, in data set [1], the “effect of Indomethacin on the suppressive effect on tracheal contractility” value (“effect of Indomethacin” below) is “inhibited by Indomethacin”; the “Ach-induced contraction (10-4 M Ach, percent of 60 mM KCL)” value was “inhibited Ach-induced contraction”; the “relative potency among the matrine type alkaloids” value is given as “most potent; also recorded: more effective than Oxymatrine”.
In the case of `O=C1CCC[C@@H]2[C@H]3CCC[N+]4([O-])CCC[C@@H](CN12)[C@@H]34` (stereo partly shown) [Oxymatrine], in data set [1], the “effect of Indomethacin” value is “inhibited by Indomethacin”; the “Ach-induced contraction (10-4 M Ach, percent of 60 mM KCL)” value is “inhibited Ach-induced contraction”; the “relative potency among the matrine type alkaloids” value was “weakest inhibitor of contraction”.
In the case of `O=C1C=CC[C@@H]2[C@H]3CCCN4CCC[C@@H](CN12)[C@@H]34` [Sophocarpine], in data set [1], the “effect of Indomethacin” value is “inhibited by Indomethacin”; the “Ach-induced contraction (10-4 M Ach, percent of 60 mM KCL)” value is “inhibited Ach-induced contraction”; the “relative potency among the matrine type alkaloids” value is “more effective than Oxymatrine”.
For the molecule `CC(Cc1ccc(O)cc1)NCC(O)c1cc(O)cc(O)c1` (stereo not shown) [fenoterol, fenoterol hydrobromide, reference compound], the “effect of co-incubation with β2-AR antagonist ICI 118,551 on relaxation” value in data set [2] is reported as “completely blocked”. The relaxation achieved in data set [2] (highest concentration tested (10^-5 M), parallel studies, FIG. 7B) is on record as 25%. Moreover, the “time course of relaxation effect” value in data set [2] (increasing time of incubation) is “slowly lost its effect”.
As to `OC[C@H]1O[C@@H](Oc2ccc3c(c2)OC[C@H]2c4cc5c(cc4O[C@@H]32)OCO5)[C@H](O)[C@@H](O)[C@@H]1O` [trifolirhizin], the “airway resistance in response to methacholine” value in data set [3] is listed as “significantly attenuated increased airway resistance”. Moreover, in data set [1] (concentrations lower than 6.0 μg/ml, FIG. 6B), the acetylcholine-induced contraction result was “not at lower concentrations”. For the same molecule, in data set [1], the “ASM contraction to acetylcholine” value is “significantly inhibited acetylcholine-induced contraction”. Moreover, in data set [1] (trifolirhizin 6.0 μg/ml with ICI 118,551 150 μM, 30 min preincubation, FIG. 6C), the “effect of β2-AR antagonist ICI 118,551 on the compound's blockade of acetylcholine contraction” value is listed as “had no effect; also recorded: did not block the effect”. The “maximal relaxation (of the initial contractile tone)” value in data set [2] (20 μg/ml, 10^-5 M acetylcholine pre-contraction, FIG. 7A) was determined as 85%. Further, the “effect of co-incubation with β2-AR antagonist ICI 118,551 on relaxation” value in data set [2] was “without effect”. Moreover, the “relaxation of pre-contracted tracheal rings, dose dependence” value in data set [2] (rings stimulated by 10^-5 M acetylcholine, FIG. 7A) is reported as “dose-dependent manner”.

Source of the values: patent US10406191B2, “Compounds, extracts and methods from chinese medicinal herb sophora flavescens that inhibit airway contraction” (priority 2013, dated 2019).
